# Molecular target: T1, CRF1 receptors (Homo sapiens, UniProt P34998)
# T1 construct: endogenous in cells; host or cells: IMR-32 cells, transformed with 2.5 µM 5'-bromo-2'-deoxyuridine for 10 days; membrane preparation
# T1 sequence (P34998 24-415): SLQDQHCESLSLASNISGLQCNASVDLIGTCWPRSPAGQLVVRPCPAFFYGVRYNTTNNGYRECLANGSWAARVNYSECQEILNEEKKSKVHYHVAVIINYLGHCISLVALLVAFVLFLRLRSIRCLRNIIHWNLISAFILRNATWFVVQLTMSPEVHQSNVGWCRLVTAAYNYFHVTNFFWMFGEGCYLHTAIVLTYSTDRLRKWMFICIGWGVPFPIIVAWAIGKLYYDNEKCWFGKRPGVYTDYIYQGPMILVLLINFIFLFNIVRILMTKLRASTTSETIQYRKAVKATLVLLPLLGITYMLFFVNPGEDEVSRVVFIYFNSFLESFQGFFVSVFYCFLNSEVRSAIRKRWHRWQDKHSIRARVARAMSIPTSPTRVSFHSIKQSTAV
# Assay: CRF1 receptor radioligand binding assay ([125I]-oCRF competition, IMR-32 cell membranes)
# Conditions: IMR-32 cell membranes, [125I]-oCRF 100 pM; read-out: Ki (CRF-1R)
# Outline: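 Buffer: Tris pH 7.2 with MgCl2, BSA, Triton X-100, aprotinin, leupeptin; reaction stopped with ice-cold wash and filtered. Nonspecific binding set with 10 μM oCRF.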
row,SMILES,Ki
1,"Cc1cc(C)c(N2CCCn3c2nc(C(F)(F)F)c3CN(Cc2ccccc2)CC(F)(F)F)c(C)c1 [Example 85, Benzyl-(2,2,2-trifluoro-ethyl)-[2-trifluoromethyl-8-(2,4,6-trimethyl-phenyl)-5,6,7,8-tetrahydro-imidazo[1,2-a]pyrimidin-3-ylmethyl]-amine]",< 10000 nM
2,"Cc1cc(C)c(N2CCCn3c2nc(C(F)(F)F)c3CN(CCC(F)(F)F)Cc2ccc(F)cc2)c(C)c1 [Example 91, (4-Fluoro-benzyl)-[2-trifluoromethyl-8-(2,4,6-trimethyl-phenyl)-5,6,7,8-tetrahydro-imidazo[1,2-a]pyrimidin-3-ylmethyl]-(3,3,3-trifluoro-propyl)-amine]",< 1000 nM
3,"CCCN(Cc1ccc(F)cc1)Cc1c(C(F)(F)F)nc2n1CCCN2c1c(C)cc(C)cc1C [Example 92, (4-Fluoro-benzyl)-propyl-[2-trifluoromethyl-8-(2,4,6-trimethyl-phenyl)-5,6,7,8-tetrahydro-imidazo[1,2-a]pyrimidin-3-ylmethyl]-amine]",< 1000 nM
4,"CCCN(Cc1ccc(Cl)cc1)Cc1c(C(F)(F)F)nc2n1CCCN2c1c(C)cc(C)cc1C [Example 94, (4-Chloro-benzyl)-propyl-[2-trifluoromethyl-8-(2,4,6-trimethyl-phenyl)-5,6,7,8-tetrahydro-imidazo[1,2-a]pyrimidin-3-ylmethyl]-amine]",< 1000 nM
5,"Cc1cc(C)c(N2CCCn3c2nc(C(F)(F)F)c3CN2CCOCC2)c(Cl)c1 [Example 97, 8-(2-Chloro-4,6-dimethyl-phenyl)-3-morpholin-4-ylmethyl-2-trifluoromethyl-5,6,7,8-tetrahydro-imidazo[1,2-a]pyrimidine]",< 1000 nM
6,"Cc1cc(C)c(N2CCCn3c2nc(C(F)(F)F)c3CN2CCSCC2)c(Cl)c1 [Example 98, 8-(2-Chloro-4,6-dimethyl-phenyl)-3-thiomorpholin-4-ylmethyl-2-trifluoromethyl-5,6,7,8-tetrahydro-imidazo[1,2-a]pyrimidine]",< 1000 nM
7,"Cc1cc(C)c(N2CCCn3c2nc(C(F)(F)F)c3CN2CCCCC2)c(Cl)c1 [Example 99, 8-(2-Chloro-4,6-dimethyl-phenyl)-3-piperidin-1-ylmethyl-2-trifluoromethyl-5,6,7,8-tetrahydro-imidazo[1,2-a]pyrimidine]",< 1000 nM
8,"Cc1cc(C)c(N2CCCn3c2nc(C(F)(F)F)c3CN2CCCCC2C)c(Cl)c1 (stereo not shown) [Example 100, 8-(2-Chloro-4,6-dimethyl-phenyl)-3-(2-methyl-piperidin-1-ylmethyl)-2-trifluoromethyl-5,6,7,8-tetrahydro-imidazo[1,2-a]pyrimidine]",< 1000 nM
9,"Cc1cc(C)c(N2CCCn3c2nc(C(F)(F)F)c3CN2CCCC(C)C2)c(Cl)c1 (stereo not shown) [Example 101, 8-(2-Chloro-4,6-dimethyl-phenyl)-3-(3-methyl-piperidin-1-ylmethyl)-2-trifluoromethyl-5,6,7,8-tetrahydro-imidazo[1,2-a]pyrimidine]",< 1000 nM
10,"Cc1cc(C)c(N2CCCn3c2nc(C(F)(F)F)c3CN2CCC(C)CC2)c(Cl)c1 [Example 102, 8-(2-Chloro-4,6-dimethyl-phenyl)-3-(4-methyl-piperidin-1-ylmethyl)-2-trifluoromethyl-5,6,7,8-tetrahydro-imidazo[1,2-a]pyrimidine]",< 1000 nM

# Continued, values first:
row,Ki,SMILES
1,< 1000 nM,"Cc1cc(C)c(N2CCCn3c2nc(C(F)(F)F)c3CN(CCc2ccccc2)CCC(F)(F)F)c(C)c1 [Example 81, Phenethyl-[2-trifluoromethyl-8-(2,4,6-trimethyl-phenyl)-5,6,7,8-tetrahydro-imidazo[1,2-a]pyrimidin-3-ylmethyl]-(3,3,3-trifluoro-propyl)-amine]"
2,< 100 nM,"Cc1cc(C)c(N2CCCn3c2nc(C(F)(F)F)c3CN(CCc2ccccc2)CC(F)(F)F)c(C)c1 [Example 82, Phenethyl-(2,2,2-trifluoro-ethyl)-[2-trifluoromethyl-8-(2,4,6-trimethyl-phenyl)-5,6,7,8-tetrahydro-imidazo[1,2-a]pyrimidin-3-ylmethyl]-amine]"
3,< 100 nM,"CCCN(CCc1ccccc1)Cc1c(C(F)(F)F)nc2n1CCCN2c1c(C)cc(C)cc1C [Example 83, Phenethyl-propyl-[2-trifluoromethyl-8-(2,4,6-trimethyl-phenyl)-5,6,7,8-tetrahydro-imidazo[1,2-a]pyrimidin-3-ylmethyl]-amine]"
4,< 1000 nM,"CCN(CCc1ccccc1)Cc1c(C(F)(F)F)nc2n1CCCN2c1c(C)cc(C)cc1C [Example 84, Ethyl-phenethyl-[2-trifluoromethyl-8-(2,4,6-trimethyl-phenyl)-5,6,7,8-tetrahydro-imidazo[1,2-a]pyrimidin-3-ylmethyl]-amine]"
5,< 1000 nM,"Cc1cc(C)c(N2CCCn3c2nc(C(F)(F)F)c3CN(CCC(F)(F)F)Cc2ccccc2)c(C)c1 [Example 86, Benzyl-[2-trifluoromethyl-8-(2,4,6-trimethyl-phenyl)-5,6,7,8-tetrahydro-imidazo[1,2-a]pyrimidin-3-ylmethyl]-(3,3,3-trifluoro-propyl)-amine]"
6,< 1000 nM,"CCCN(CCC1CC1)Cc1c(C(F)(F)F)nc2n1CCCN2c1c(C)cc(C)cc1C [Example 87, (2-Cyclopropyl-ethyl)-propyl-[2-trifluoromethyl-8-(2,4,6-trimethyl-phenyl)-5,6,7,8-tetrahydro-imidazo[1,2-a]pyrimidin-3-ylmethyl]-amine]"
7,< 1000 nM,"CCN(CCC1CC1)Cc1c(C(F)(F)F)nc2n1CCCN2c1c(C)cc(C)cc1C [Example 88, (2-Cyclopropyl-ethyl)-ethyl-[2-trifluoromethyl-8-(2,4,6-trimethyl-phenyl)-5,6,7,8-tetrahydro-imidazo[1,2-a]pyrimidin-3-ylmethyl]-amine]"
8,< 1000 nM,"Cc1cc(C)c(N2CCCn3c2nc(C(F)(F)F)c3CN(CCC2CC2)CCC(F)(F)F)c(C)c1 [Example 89, (2-Cyclopropyl-ethyl)-[2-trifluoromethyl-8-(2,4,6-trimethyl-phenyl)-5,6,7,8-tetrahydro-imidazo[1,2-a]pyrimidin-3-ylmethyl]-(3,3,3-trifluoro-propyl)-amine]"
9,< 1000 nM,"Cc1cc(C)c(N2CCCn3c2nc(C(F)(F)F)c3CN(CCC2CC2)CC(F)(F)F)c(C)c1 [Example 90, (2-Cyclopropyl-ethyl)-(2,2,2-trifluoro-ethyl)-[2-trifluoromethyl-8-(2,4,6-trimethyl-phenyl)-5,6,7,8-tetrahydro-imidazo[1,2-a]pyrimidin-3-ylmethyl]-amine]"
10,< 100 nM,"Cc1cc(C)c(N2CCCn3c2nc(C(F)(F)F)c3CN(CCC(F)(F)F)Cc2ccc(Cl)cc2)c(C)c1 [Example 93, (4-Chloro-benzyl)-[2-trifluoromethyl-8-(2,4,6-trimethyl-phenyl)-5,6,7,8-tetrahydro-imidazo[1,2-a]pyrimidin-3-ylmethyl]-(3,3,3-trifluoro-propyl)-amine]"
11,< 100 nM,"C=CCN(CCC)Cc1c(C(F)(F)F)nc2n1CCCN2c1c(C)cc(C)cc1C [Example 95, Allyl-propyl-[2-trifluoromethyl-8-(2,4,6-trimethyl-phenyl)-5,6,7,8-tetrahydro-imidazo[1,2-a]pyrimidin-3-ylmethyl]-amine]"
12,< 100 nM,"CCCN(Cc1c(C(F)(F)F)nc2n1CCCN2c1c(C)cc(C)cc1Cl)CC1CC1 [Example 96, [8-(2-Chloro-4,6-dimethyl-phenyl)-2-trifluoromethyl-5,6,7,8-tetrahydro-imidazo[1,2-a]pyrimidin-3-ylmethyl]-cyclopropylmethyl-propyl-amine]"
